SMILES strings stand for the structures. Active and inactive are the calls of the source. No rule for the calls is given here.

This series deals with GENE-TOX genotoxicity assays, various organisms and cells. Put plainly: GENE-TOX mutagenicity studies. The settings on record: for call: Assay Type: In vivo carcinogenicity studies. From the text: GENE-TOX provides genetic toxicology (mutagenicity) test data from expert peer review of open scientific literature for more than 3,000 chemicals from the United States Environmental Protection Agency (EPA). GENE-TOX was established to select assay systems for evaluation, review data in the scientific literature, and recommend proper testing protocols and evaluation procedures for these systems.
GENE-TOX covers the years 1991 - 1998. It is no longer updated.
This is an archive assay for GENE-TOX mutagenicity studies.

Where [1] appears, read: Species/Cell Type: Drosophila melanogaster, Assay Type: Sex-linked recessive lethal gene mutation, Assay Code: SRLT, Evaluation Type: Evaluation A (Pre-1980).
[2] abbreviates: Species/Cell Type: Nonhuman, Assay Code: CCG+, Evaluation Type: Evaluation A (Pre-1980).
Setting [3] is: Species/Cell Type: Salmonella typhimurium (one or more of the five standard strains: TA98, TA100, TA1535, TA1537, and TA1538), Assay Type: Histidine reverse gene mutation, Ames assay, Assay Code: SAL+*, Activation: With metabolic activation, Evaluation Type: Evaluation A (Pre-1980).
The mark [4] stands for this setting: Species/Cell Type: Syrian hamster embryo (SHE) cells, Assay Type: Cell transformation, clonal assay, Assay Code: CTC+, Evaluation Type: Evaluation A (Pre-1980).
Setting [5] is: Species/Cell Type: Escherichia coli polA (W3119 vs P3478), Assay Type: Rec-assay, DNA effects (bacterial DNA repair), Assay Code: RE1+, Evaluation Type: Evaluation A (Pre-1980).
The mark [6] stands for this setting: Species/Cell Type: Mouse, Sex: Male, Assay Type: Sperm morphology, Assay Code: SPI-, Evaluation Type: Evaluation A (Pre-1980).
[7] abbreviates: Species/Cell Type: Chinese hamster lung (V79) cells, Assay Type: Forward gene mutation at the HPRT or ouabain locus, Assay Code: V79+, Evaluation Type: Evaluation A (Pre-1980).
Where [8] appears, read: Species/Cell Type: Mouse prostate cells, Assay Type: Cell transformation, Assay Code: CTM-, Evaluation Type: Evaluation A (Pre-1980).
Setting [9] is: Species/Cell Type: Drosophila melanogaster, Assay Type: Sex-linked recessive lethal gene mutation, Assay Code: SRL+, Evaluation Type: Evaluation A (Pre-1980).
Where [10] appears, read: Species/Cell Type: Mammalian polychromatic erythrocytes, Assay Type: Micronucleus test, chromosome aberrations, Assay Code: MNTT, Evaluation Type: Evaluation A (Pre-1980).
The mark [11] stands for this setting: Species/Cell Type: Neurospora crassa, Assay Type: Aneuploidy, chromosome aberrations, Assay Code: NEN-, Evaluation Type: Evaluation A (Pre-1980).
[12] abbreviates: Species/Cell Type: Mammalian polychromatic erythrocytes, Assay Type: Micronucleus test, chromosome aberrations, Assay Code: MNTT, Evaluation Type: Evaluation B (Post-1980).
The mark [13] stands for this setting: Species/Cell Type: Human lymphocytes, Assay Type: Sister-chromatid exchange (SCE) in vitro, Assay Code: SCL+, Evaluation Type: Evaluation B (Post-1980).
[14] abbreviates: Species/Cell Type: Human, Assay Type: Sister-chromatid exchange (SCE) in vitro, Assay Code: SC1+, Evaluation Type: Evaluation B (Post-1980).

On to `Cc1c2ccccc2cc2c1ccc1ccccc12`, for which the mutagenic call (Species/Cell Type: Chinese hamster lung (V79) cells, Assay Type: Forward gene mutation at the HPRT or ouabain locus, Assay Code: V79+*, Activation: With metabolic activation, Evaluation Type: Evaluation A (Pre-1980)) was “active; positive”; the mutagenic call under setting [1] was “no conclusion”; the mutagenic call (Species/Cell Type: Mouse prostate cells, Assay Type: Cell transformation, Assay Code: CTM+D, Dose Response: With dose response, Evaluation Type: Evaluation A (Pre-1980)) was “active; positive”; the mutagenic call (Species/Cell Type: Nonhuman, Assay Type: Sister-chromatid exchange (SCE) in vitro, Assay Code: SC2+D, Dose Response: With dose response, Evaluation Type: Evaluation A (Pre-1980)) is “active; positive”; the mutagenic call under setting [3] was “active; positive”; the mutagenic call under setting [4] is “active; positive”. Also, the call under setting [2] is “active; positive”.

Regarding `CC(=O)[O-].CC(=O)[O-].CC(=O)[O-].CC(=O)[O-].[Pb+2]`, the call under setting [2] is “active; positive”.

As to `NNC(=O)COc1ccc(Br)cc1CN1CCCCC1`, under “Species/Cell Type: Saccharomyces cerevisiae, Assay Type: Reverse gene mutation, Assay Code: YERT, Evaluation Type: Evaluation A (Pre-1980)”, the mutagenic call is on record as “no conclusion”.

Consider `CC(=O)Oc1ccc2c3c1O[C@H]1[C@@H](OC(C)=O)C=C[C@H]4[C@@H](C2)N(C)CC[C@@]341`, for which the mutagenic call (Species/Cell Type: Nonhuman, Assay Type: Sister-chromatid exchange (SCE) in vivo, Assay Code: SC3+, Evaluation Type: Evaluation B (Post-1980)) was “active; positive”.

On to `Nc1ccccc1Cl`, for which the mutagenic call under setting [5] is “active; positive”; the mutagenic call under setting [6] was “inactive; negative”; the mutagenic call (Species/Cell Type: Saccharomyces cerevisiae, Assay Type: Mitotic recombination or gene conversion, Assay Code: YEH-, Evaluation Type: Evaluation A (Pre-1980)) is “inactive; negative”; the mutagenic call (Species/Cell Type: Syrian hamster embryo (SHE) cells, Assay Type: Cell transformation, clonal assay, Assay Code: CTC-, Evaluation Type: Evaluation A (Pre-1980)) is “inactive; negative”.

Turning to `Cc1c2c(c(C)c3c1ccc1ccccc13)[C@@H]1OC1[C@@H](O)[C@@H]2O` (some centres not stated), the mutagenic call under setting [7] is “active; positive”.

Regarding `OC1c2ccccc2-c2cc3ccccc3cc2C1O` (configuration not stated), the mutagenic call is “inactive; negative” (Species/Cell Type: Chinese hamster lung (V79) cells, Assay Type: Forward gene mutation at the HPRT or ouabain locus, Assay Code: V79-*, Activation: With metabolic activation, Evaluation Type: Evaluation A (Pre-1980)); “inactive; negative” (Species/Cell Type: Chinese hamster lung (V79) cells, Assay Type: Forward gene mutation at the HPRT or ouabain locus, Assay Code: V79-, Evaluation Type: Evaluation A (Pre-1980)); “no conclusion” under setting [1]; “inactive; negative” (Species/Cell Type: Human diploid fibroblasts, Assay Type: Unscheduled DNA synthesis (UDS) in vitro, DNA effects, Assay Code: UDH-, Evaluation Type: Evaluation A (Pre-1980)); “inactive; negative” under setting [8]; “active; positive” under setting [4].

Regarding `Cc1c2c(cc3c1ccc1ccccc13)C=CC(O)C2O` (configuration not stated), the mutagenic call under setting [3] is “active; positive”.

On to `CCNCCNc1ccc(CO)c2sc3ccccc3c(=O)c12`, for which, for the setting “Species/Cell Type: Fischer rat embryo (RLV/1706) cells, Assay Type: Cell transformation, viral enhanced, Assay Code: CTR+, Evaluation Type: Evaluation A (Pre-1980)”, the mutagenic call is “active; positive”.

In the case of `N[C@H](Cc1ccc(N(CCCl)CCCl)cc1)C(=O)O`, the mutagenic call under setting [9] is “active; positive”.

Consider `CCNC(=O)N(CC)N=O`, for which the mutagenic call (Species/Cell Type: Zea mays (corn), Assay Type: Gene mutation, Assay Code: ZEM+D, Dose Response: With dose response, Evaluation Type: Evaluation A (Pre-1980)) is “active; positive”.

For `CC/C(=C(/CC)c1ccc(OP(=O)(O)O)cc1)c1ccc(OP(=O)(O)O)cc1`, the mutagenic call under setting [10] is listed as “no conclusion”; the mutagenic call under setting [11] was “inactive; negative”; the mutagenic call (Species/Cell Type: Nonhuman, Assay Type: Sister-chromatid exchange (SCE) in vivo, Assay Code: SC3-, Evaluation Type: Evaluation B (Post-1980)) was “inactive; negative”; the mutagenic call (Species/Cell Type: Rodents, Sex: Male, Assay Type: Dominant lethal test, Assay Code: DLT+, Evaluation Type: Evaluation A (Pre-1980)) was “active; positive”.

Consider `CC(C)NCC(O)c1ccc(NS(C)(=O)=O)cc1` (configuration not stated), for which the mutagenic call under setting [12] is on record as “no conclusion”.

Take `O=Nc1ccc(NNc2ccccc2)cc1`: the mutagenic call (Species/Cell Type: Salmonella typhimurium (one or more of the five standard strains: TA98, TA100, TA1535, TA1537, and TA1538), Assay Type: Histidine reverse gene mutation, Ames assay, Assay Code: SAL+, Evaluation Type: Evaluation A (Pre-1980)) is “active; positive”.

Regarding `CCN(CC)CCCC(C)Nc1c2ccc(Cl)cc2nc2ccc(OC)cc12` (configuration not stated), the mutagenic call is, setting by setting: under setting [5], “active; positive”; under setting [13], “active; positive”; under setting [14], “active; positive”; (Species/Cell Type: Mammalian polychromatic erythrocytes, Assay Type: Micronucleus test, chromosome aberrations, Assay Code: MNT+, Evaluation Type: Evaluation B (Post-1980)) “active; positive”; under setting [10], “no conclusion”; under setting [6], “inactive; negative”.

For the molecule `CCCCCCCCCCCCCCCC(=O)OC/C=C(C)/C=C/C=C(C)/C=C/C1=C(C)CCCC1(C)C`, where the note is “Species/Cell Type: Human, Assay Type: Sister-chromatid exchange (SCE) in vitro, Assay Code: SC1+D, Dose Response: With dose response, Evaluation Type: Evaluation A (Pre-1980)”, the mutagenic call was “active; positive”.

In the case of `C=CC1=C(C)/C(=C/c2[nH]c(Cc3[nH]c(/C=C4\NC(=O)C(C)=C4C=C)c(C)c3CCC(=O)O)c(CCC(=O)O)c2C)NC1=O`, the mutagenic call reads like this: (Species/Cell Type: Human lymphocytes, Assay Type: Sister-chromatid exchange (SCE) in vitro, Assay Code: SCL-, Evaluation Type: Evaluation A (Pre-1980)) “inactive; negative”; (Species/Cell Type: Human, Assay Type: Sister-chromatid exchange (SCE) in vitro, Assay Code: SC1-, Evaluation Type: Evaluation A (Pre-1980)) “inactive; negative”.

Regarding `CCN(CCO)CCNc1ccc(CO)c2sc3cc(Cl)ccc3c(=O)c12`, the mutagenic call (Species/Cell Type: Mouse lymphoma (L5178Y) cells, Assay Type: Forward gene mutation at the thymidine kinase (TK) locus, chromosome aberrations, Assay Code: L51+, Evaluation Type: Evaluation A (Pre-1980)) is “active; positive”.

With `Oc1cccc2cccnc12`, the mutagenic call under setting [13] is “active; positive”; the mutagenic call under setting [14] was “active; positive”; the mutagenic call under setting [12] is “no conclusion”; the mutagenic call under setting [11] was “inactive; negative”; the mutagenic call (Species/Cell Type: Saccharomyces cerevisiae, Assay Type: Mitotic recombination or gene conversion, Assay Code: YEC-, Evaluation Type: Evaluation A (Pre-1980)) is “inactive; negative”; the mutagenic call under setting [3] is “active; positive”. The mutagenic call (Species/Cell Type: Vicia faba, Assay Type: Chromosome aberrations, Assay Code: VIC+, Evaluation Type: Evaluation A (Pre-1980)) is “active; positive”. Further, the call (Species/Cell Type: Nonhuman, Assay Code: CCG-, Evaluation Type: Evaluation A (Pre-1980)) was “inactive; negative”.

In the case of `CCCCOC(=O)COc1cc(Cl)c(Cl)cc1Cl`, the mutagenic call (Species/Cell Type: Salmonella typhimurium, Serratia marcesens, Assay Type: Forward and reverse gene mutation, host-mediated assay, Assay Code: HM2T, Evaluation Type: Evaluation A (Pre-1980)) is “no conclusion”.

As to `Oc1cc2cc3ccccc3cc2c2ccccc12`, the mutagenic call by setting is: under setting [7], “active; positive”; under setting [8], “inactive; negative”; under setting [4], “active; positive”.

Turning to `Oc1ccc2ccccc2c1N=Nc1ccc(N=Nc2ccccc2)cc1`, the mutagenic call (Species/Cell Type: Bacillus subtilis (H17 vs M45T), Assay Type: Rec-assay, spot test, DNA effects (bacterial DNA repair), Assay Code: REXT, Evaluation Type: Evaluation A (Pre-1980)) is on record as “no conclusion”.

In the case of `O=NN1CCCCC1C(=O)O` (configuration not stated), the mutagenic call under setting [1] is “no conclusion”.

With `CCCCNP(=O)(N1CC1)N1CC1`, the mutagenic call is “active; positive” under setting [9]; “active; positive” (Species/Cell Type: Nonhuman, Assay Type: Chromosome aberrations in vitro, Assay Code: CY&+, Evaluation Type: Evaluation A (Pre-1980)); “active; positive” (Species/Cell Type: Schizosaccharomyces pombe, Assay Type: Reverse gene mutation, Assay Code: YEZ+, Evaluation Type: Evaluation A (Pre-1980)).

For the molecule `Nc1cccc(N)c1`, the mutagenic call (Species/Cell Type: Allium cepa, Assay Type: Chromosome aberrations, Assay Code: ALC+, Evaluation Type: Evaluation A (Pre-1980)) was “active; positive”; the mutagenic call (Species/Cell Type: Rodents, Sex: Male, Assay Type: Dominant lethal test, Assay Code: DLTT, Evaluation Type: Evaluation A (Pre-1980)) is listed as “no conclusion”; the mutagenic call under setting [3] was “active; positive”; the mutagenic call under setting [4] is “active; positive”.

For the origin of these results see PubChem BioAssay AID1259408 (Genetic Toxicology Data Bank (GENE-TOX), 2018).
